Measurements from ChEMBL document CHEMBL1125950, “Synthesis, siderophore, and antimicrobial evaluation of a spermidine-based tricatecholate siderophore and carbacephalosporin conjugate” (1991).

Columns and labels:
Type in all cases: functional
Escherichia coli [1] = assay: Compound was evaluated for zone of stimulation of growth in Escherichia coli X580 at concentration of 25 nM
Escherichia coli [2] = assay: Compound was evaluated for zone of stimulation of growth in Escherichia coli X580 at concentration of 5 nM
Escherichia coli [3] = assay: Compound was evaluated for zone of stimulation of growth in Escherichia coli RWB18 at a concentration of 5 nM
Escherichia coli [4] = assay: Compound was evaluated for zone of stimulation of growth in Escherichia coli RW193 at concentration of 5 nM
Escherichia coli [5] = assay: Compound was evaluated for zone of stimulation of growth in Escherichia coli RWB18 at a concentration of 25 nM
Escherichia coli [6] = assay: Compound was evaluated for zone of stimulation of growth in Escherichia coli RW193 at concentration of 25 nM

| SMILES | Zone of stimulation (Escherichia coli [1]) | Zone of stimulation (Escherichia coli [2]) | Zone of stimulation (Escherichia coli [3]) | Zone of stimulation (Escherichia coli [4]) | Zone of stimulation (Escherichia coli [5]) | Zone of stimulation (Escherichia coli [6]) |
| --- | --- | --- | --- | --- | --- | --- |
| O=C(N[C@H]1COC(=O)[C@@H](NC(=O)c2cccc(O)c2O)COC(=O)[C@@H](NC(=O)c2cccc(O)c2O)COC1=O)c1cccc(O)c1O (stereo in doubt; form 2) [ENTEROBACTIN] | 40 mm | 30 mm | – | – | – | – |
| O=C(N[C@H]1COC(=O)[C@@H](NC(=O)c2cccc(O)c2O)COC(=O)[C@@H](NC(=O)c2cccc(O)c2O)COC1=O)c1cccc(O)c1O (stereo in doubt; form 1) [ENTEROBACTIN] | 38 mm | 24 mm | – | – | – | – |
| O=C(CCC(=O)N(CCCCNC(=O)c1cccc(O)c1O)CCCNC(=O)c1cccc(O)c1O)NCCCC[C@H](NC(=O)c1cccc(O)c1O)C(=O)N[C@@H]1C(=O)N2C(C(=O)O)=C(Cl)CC[C@H]12 (stereo in doubt) | 12 mm | – | 12 mm | 12 mm | 20 mm | – |
| O=C(CCC(=O)N(CCCCNC(=O)c1cccc(O)c1O)CCCNC(=O)c1cccc(O)c1O)NCCCC[C@H](NC(=O)c1cccc(O)c1O)C(=O)O (stereo in doubt; 7) | 20 mm | – | 24 mm | – | – | 24 mm |
| O=C(CCC(=O)N(CCCCNC(=O)c1cccc(O)c1O)CCCNC(=O)c1cccc(O)c1O)NCCCC[C@H](NC(=O)c1cccc(O)c1O)C(=O)O (stereo in doubt) | 22 mm | – | 16 mm | 22 mm | 24 mm | 28 mm |
| O=C(O)CCC(=O)N(CCCCNC(=O)c1cccc(O)c1O)CCCNC(=O)c1cccc(O)c1O | – | – | – | – | 24 mm | – |
| O=C(CCC(=O)N(CCCCNC(=O)c1cccc(O)c1O)CCCNC(=O)c1cccc(O)c1O)NCCCC[C@H](NC(=O)c1cccc(O)c1O)C(=O)N[C@@H]1C(=O)N2C(C(=O)O)=C(Cl)CC[C@H]12 (stereo in doubt; 8) | 0 mm | – | 10 mm | – | 16 mm | 18 mm |
